These results are taken from patent publication US20260284201A1, “COMPOSITIONS AND METHODS FOR TREATING TENDON AND BONE INJURIES” (The United States Government as represented by the …, priority 2023, published 2026).

For data set [1], the system named is canine tendon-to-bone healing. Conditions: cited from earlier work.
The test system of data set [2] is osteoclasts. Conditions: cited from earlier work.
Data set [3] has as its system osteoporotic rats. Particulars: cited from earlier work.
In data set [4] the test system is rat rotator cuff repairs. Particulars: cited from earlier work.
The subject of data set [5] is osteoporotic mouse model. Particulars: 1.25 mg/kg intravenously; cited from earlier work.
The subject of data set [6] is fracture healing. Conditions: 1.25 mg/kg systemically once per week; cited from earlier work.
Data set [7] concerns mice in space. Nature of the data set: Bone volume among mice in space (unpublished data). It is filed as in vivo. Conditions: 10 mg/kg once per week.

`NCCCC(O)(P(=O)(O)O)P(=O)(O)O` [alendronate]: in data set [1], the “incidence of suture pull through tendon” value is listed as “lower incidence of suture pull through tendon” and the “ultimate load to failure” value is “improved ultimate load to failure”.

On to `CC(O)(P(=O)(O)O)P(=O)(O)O` [etidronate], for which the “inhibition of the function of osteoclasts” value in data set [2] was “do not inhibit the function of osteoclasts”.

On to `O=P(O)(O)C(O)(Cc1cccnc1)P(=O)(O)O` [risedronate], for which, in data set [3], the rotator cuff healing result was “beneficial to rotator cuff healing”.

As for `O=P(O)(O)C(O)(Cn1ccnc1)P(=O)(O)O` [zolendronate], the tendon-to-bone healing result in data set [4] is “negative effects on tendon-to-bone healing”.

As for methylhydroxyl diphosphonate, in data set [2], the “inhibition of the function of osteoclasts” value was “do not inhibit the function of osteoclasts”.

B1: rhNELL-1: recombinant human NELL-1 (protein, UniProt Q92832 22-810, looked up)
Protein kinase C-binding …: FGMDPDLQMDIVTELDLVNTTLGVAQVSGMHNASKAFLFQDIEREIHAAPHVSEKLIQLFRNKSEFTILATVQQKPSTSGVILSIRELEHSYFELESSGLRDEIRYHYIHNGKPRTEALPYRMADGQWHKVALSVSASHLLLHVDCNRIYERVIDPPDTNLPPGINLWLGQRNQKHGLFKGIIQDGKIIFMPNGYITQCPNLNHTCPTCSDFLSLVQGIMDLQELLAKMTAKLNYAETRLSQLENCHCEKTCQVSGLLYRDQDSWVDGDHCRNCTCKSGAVECRRMSCPPLNCSPDSLPVHIAGQCCKVCRPKCIYGGKVLAEGQRILTKSCRECRGGVLVKITEMCPPLNCSEKDHILPENQCCRVCRGHNFCAEGPKCGENSECKNWNTKATCECKSGYISVQGDSAYCEDIDECAAKMHYCHANTVCVNLPGLYRCDCVPGYIRVDDFSCTEHDECGSGQHNCDENAICTNTVQGHSCTCKPGYVGNGTICRAFCEEGCRYGGTCVAPNKCVCPSGFTGSHCEKDIDECSEGIIECHNHSRCVNLPGWYHCECRSGFHDDGTYSLSGESCIDIDECALRTHTCWNDSACINLAGGFDCLCPSGPSCSGDCPHEGGLKHNGQVWTLKEDRCSVCSCKDGKIFCRRTACDCQNPSADLFCCPECDTRVTSQCLDQNGHKLYRSGDNWTHSCQQCRCLEGEVDCWPLTCPNLSCEYTAILEGECCPRCVSDPCLADNITYDIRKTCLDSYGVSRLSGSVWTMAGSPCTTCKCKNGRVCCSVDFECLQNN
In the case of B1, the bone formation result in data set [5] is on record as “lead to bone formation”.

B2: NELL-1-PEG: chemically modified version of NELL-1 protein using polyethylene glycol (PEGylation) (protein, UniProt Q92832 22-810, looked up)
Protein kinase C-binding …: FGMDPDLQMDIVTELDLVNTTLGVAQVSGMHNASKAFLFQDIEREIHAAPHVSEKLIQLFRNKSEFTILATVQQKPSTSGVILSIRELEHSYFELESSGLRDEIRYHYIHNGKPRTEALPYRMADGQWHKVALSVSASHLLLHVDCNRIYERVIDPPDTNLPPGINLWLGQRNQKHGLFKGIIQDGKIIFMPNGYITQCPNLNHTCPTCSDFLSLVQGIMDLQELLAKMTAKLNYAETRLSQLENCHCEKTCQVSGLLYRDQDSWVDGDHCRNCTCKSGAVECRRMSCPPLNCSPDSLPVHIAGQCCKVCRPKCIYGGKVLAEGQRILTKSCRECRGGVLVKITEMCPPLNCSEKDHILPENQCCRVCRGHNFCAEGPKCGENSECKNWNTKATCECKSGYISVQGDSAYCEDIDECAAKMHYCHANTVCVNLPGLYRCDCVPGYIRVDDFSCTEHDECGSGQHNCDENAICTNTVQGHSCTCKPGYVGNGTICRAFCEEGCRYGGTCVAPNKCVCPSGFTGSHCEKDIDECSEGIIECHNHSRCVNLPGWYHCECRSGFHDDGTYSLSGESCIDIDECALRTHTCWNDSACINLAGGFDCLCPSGPSCSGDCPHEGGLKHNGQVWTLKEDRCSVCSCKDGKIFCRRTACDCQNPSADLFCCPECDTRVTSQCLDQNGHKLYRSGDNWTHSCQQCRCLEGEVDCWPLTCPNLSCEYTAILEGECCPRCVSDPCLADNITYDIRKTCLDSYGVSRLSGSVWTMAGSPCTTCKCKNGRVCCSVDFECLQNN
modifications: PEG
Take B2: in data set [6], the “ectopic bone formation, radiographically or on organ retrieval analysis” value is listed as “no evidence of ectopic bone formation”; the fracture healing entry is “enhance fracture healing”; the toxicology testing entry is “no abnormalities detected on toxicology testing”.

B3: BP-NELL-1-PEG: NELL-1-PEG covalently bound to BP molecules (conjugate, UniProt Q92832 22-810, looked up)
Protein kinase C-binding …: FGMDPDLQMDIVTELDLVNTTLGVAQVSGMHNASKAFLFQDIEREIHAAPHVSEKLIQLFRNKSEFTILATVQQKPSTSGVILSIRELEHSYFELESSGLRDEIRYHYIHNGKPRTEALPYRMADGQWHKVALSVSASHLLLHVDCNRIYERVIDPPDTNLPPGINLWLGQRNQKHGLFKGIIQDGKIIFMPNGYITQCPNLNHTCPTCSDFLSLVQGIMDLQELLAKMTAKLNYAETRLSQLENCHCEKTCQVSGLLYRDQDSWVDGDHCRNCTCKSGAVECRRMSCPPLNCSPDSLPVHIAGQCCKVCRPKCIYGGKVLAEGQRILTKSCRECRGGVLVKITEMCPPLNCSEKDHILPENQCCRVCRGHNFCAEGPKCGENSECKNWNTKATCECKSGYISVQGDSAYCEDIDECAAKMHYCHANTVCVNLPGLYRCDCVPGYIRVDDFSCTEHDECGSGQHNCDENAICTNTVQGHSCTCKPGYVGNGTICRAFCEEGCRYGGTCVAPNKCVCPSGFTGSHCEKDIDECSEGIIECHNHSRCVNLPGWYHCECRSGFHDDGTYSLSGESCIDIDECALRTHTCWNDSACINLAGGFDCLCPSGPSCSGDCPHEGGLKHNGQVWTLKEDRCSVCSCKDGKIFCRRTACDCQNPSADLFCCPECDTRVTSQCLDQNGHKLYRSGDNWTHSCQQCRCLEGEVDCWPLTCPNLSCEYTAILEGECCPRCVSDPCLADNITYDIRKTCLDSYGVSRLSGSVWTMAGSPCTTCKCKNGRVCCSVDFECLQNN
modifications: PEG; bisphosphonate conjugate
Take B3: the bone volume entry in data set [7] is “preserve bone volume”.
